According to patent publication US11116778B2, “Prodrugs of ALOX-15 inhibitors and methods of using the same” (EMPIRICO INC., priority 2019, dated 2021):

Assays:
POSTN mRNA [1] = assay: POSTN mRNA by RT-qPCR in human nasal epithelial primary cells; format: cell-based; details: 5 μM or 1 μM, 3 x 24 hours with 20 ng/mL IL-13
Protocol: Human nasal epithelial primary cells (HNEpC) (PromoCell GmbH, Heidelberg, Germany) were cultured according to the manufacturer in provided Primary Cell media in 24 well plates at a density of 25,000 cells per well. Cells were treated with 5 μM or 1 μM of compound 5 or vehicle only (water) in media containing 20 ng/mL IL-13 for 24 hours in a 37° C. cell culture incubator. The following day, media was replaced and fresh media containing 20 ng/mL IL-13 and compound 5 or vehicle was added to each well, then incubated again for 24 hours in a 37° C. cell culture incubator. The process was repeated once more for a 24-hour period.
ALOX15 and POSTN mRNA levels were measured by RT-qPCR. […] The level of ALOX15 mRNA from each sample was measured in triplicate by real-time qPCR on an Applied Biosystems 7500 Fast Real-Time PCR machine using the TaqMan Gene Expression Assay for human ALOX15 (ThermoFisher, assay #Hs00993765_g1). The level of PPIA mRNA was measured in biplex reactions using TaqMan Gene Expression Assay (ThermoFisher, assay #Hs99999904_ml) and used to determine relative ALOX15 mRNA levels in each well using the delta-delta Ct method. […] Relative POSTN mRNA levels were measured as above using TaqMan Gene Expression Assay specific for human POSTN mRNA (ThermoFisher, assay #Hs00170815_m1). […]

POSTN mRNA [2] = assay: POSTN mRNA by RT-qPCR in rabbit nasal mucosa; format: in vivo; details: rostral and caudal regions; rabbits, compound 5 10 mM intranasal
Protocol: Six (6) female NZW rabbits were employed in this study. Rabbits were obtained from Covance (Denver Pa.). Rabbits were between approximately 10 and 12 months of age at the time of study start. At time point 0, all animals received 50 μL of solution containing rabbit IL4 (RND Systems/Biotechne) and human IL13 (PreproTech) at a concentration of 0.25 mg/mL each in 0.5×PBS containing 12.5 mg/mL BSA per nostril. This was administered intranasally via a venous catheter attached to a micropipette. The animal was positioned in a supine manner and the venous catheter inserted into the nostril. The volume was introduced into the nasal cavity and the same procedure was repeated with the other nostril. […]
Relative ALOX15 and POSTN mRNA levels in nasal mucosa were measured by RT-qPCR. […] The level of ALOX15 or POSTN mRNA from each sample was measured in triplicate by real-time qPCR on an Applied Biosystems 7500 Fast Real-Time PCR machine using the TaqMan Gene Expression Assay for rabbit ALOX15 (ThermoFisher, assay #Oc03823548_s1). The level of GAPDH mRNA was measured in biplex reactions using TaqMan Gene Expression Assay (ThermoFisher, assay #Oc03823402_g1) and used to determine relative ALOX15 mRNA levels in each well using the delta-delta Ct method. […] Relative POSTN mRNA levels were measured as above using TaqMan Gene Expression Assay specific for rabbit POSTN mRNA (ThermoFisher, assay #Oc06804808_s1). […]

O=C(Nc1ccc(F)cc1Cl)c1nn(COP(=O)(O)O)c(Cl)c1Cl [compound 5, (4,5-dichloro-3-((2-chloro-4-fluorophenyl)carbamoyl)-1H-pyrazol-1-yl)methyl dihydrogen phosphate]
relative level of POSTN mRNA versus vehicle (FIG. 7) (POSTN mRNA [1]): lower
relative level of POSTN mRNA in nasal mucosa versus vehicle (FIG. 11) (POSTN mRNA [2]): lower
